Our source for the IC50 and fold change values is PubChem BioAssay AID1419 (Emory University Molecular Libraries Screening Center, 2008).

Structures are written as SMILES. Calls of active or inactive are those of the source. No rule for the calls is given here.

The experiment is described as follows: EBV protein-peptide binding inhibitors, dose response, biochemical, fluorescence polarization (AID 1419). Particulars: cell-free protein-peptide binding, 2 h; for fold change: measured here: P channel fold over control, at 54 µM. On the technique in general: Polarisation of emitted light reports the rotation of a fluorescent probe.

For `CC(C)(C)c1cc[n+](-c2[nH]c(=O)sc2/C=N/NC([S-])=Nc2ccccc2)cc1`, the IC50 (as a rule, the concentration at which inhibition is half-maximal) is less than 0.42 µM and the fold change stood at 13.6.

Regarding `CC(=O)N/N=C/c1cc(C(C)C)cc(/C=N/NC(C)=O)c1O`, the IC50 was 2.84 µM and the fold change worked out at 4.18.

`Cc1cc(/C=C2\SC(=S)N(Cc3ccco3)C2=O)c(C)n1-c1ccccc1`: the IC50 was 7.24 µM and the fold change is 4.81.

Turning to `N#Cc1c(N)sc(=S)c2c1CCCC2`, the IC50 was > 54 µM (inactive) and the fold change was found to be 1.09.

Turning to `CN(C)c1ccnc2sc(C(=O)c3ccc(Br)cc3)c(N)c12`, the IC50 is > 54 µM (inactive) and the fold change is 0.973.

Consider `Cc1ccc(C)c2nc3sc(C(=O)N4CCCc5ccccc54)c(N)c3cc12`, for which the IC50 is 1.24 µM and the fold change is 11.6.

In the case of `CCCCn1c(=O)[nH]c2nc3cc(N)ccc3nc2c1=O`, the IC50 is less than 0.42 µM and the fold change worked out at 110.

On to `Cn1c(=O)c2[nH]c(-c3ccccc3)c(O)c2n(C)c1=O`, for which the IC50 is less than 0.42 µM and the fold change came to 6.43.

For `Nn1c(SCC(=O)NC(=O)NCc2ccco2)nnc1-c1ccc(OC(F)F)cc1`, the IC50 is 31.1 µM (inactive) and the fold change was 1.09.

Consider `Fc1ccccc1C(c1nnnn1C1CCCC1)N1CCN(Cc2ccccc2)CC1` (centres undefined), for which the IC50 was > 54 µM (inactive) and the fold change stood at 1.05.

Consider `Cc1cc(N(CCCl)CCCl)ccc1/C=N/NC(=O)c1ccco1`, for which the IC50 is > 54 µM (inactive) and the fold change was determined as 1.06.

`CC(C)(C)c1ccc(C(=O)Nc2cccc3c(=O)[nH][nH]c(=O)c23)cc1`: the concentration for half-maximal inhibition (IC50) was 5.97 µM and the fold change turned out to be 3.72.

For `N#CC1=C(N)OC2=C(CC/C2=C\c2ccc(F)cc2)C1c1ccc(F)cc1` (centres undefined), the IC50 is 20 µM and the fold change was determined as 3.48.

In the case of `CCn1c(CSc2nccn2C)nc2cc(C(=O)O)ccc21`, the IC50 was 13 µM and the fold change is 2.34.

Turning to `COc1ccc(NC(=O)NC(=O)c2cc(OCC(F)(F)F)ccc2OCC(F)(F)F)cc1`, the IC50 was > 54 µM (inactive) and the fold change was 0.943.

As to `COc1ccc(S(=O)(=O)c2c(N)n(Cc3ccco3)c3nc4ccccc4nc23)cc1`, the IC50 was 9.62 µM and the fold change was found to be 1.74.

For the molecule `CCC(C)NC(=O)c1ccc(CSCc2cccc(F)c2)o1` (centres undefined), the IC50 is > 54 µM (inactive) and the fold change was determined as 1.08.

In the case of `Cc1ccc(-n2cccc2/C=C2\C(=N)N3N=C(c4ccco4)SC3=NC2=O)cc1`, the IC50 is > 54 µM (inactive) and the fold change stood at 1.17.

For `CN(C)c1ccc(/C=C(\C#N)C(=O)Nc2nc3c(s2)CCN(Cc2ccccc2)C3)cc1`, the IC50 is 1.21 µM and the fold change came to 19.9.

As for `O=C(C1=NN(c2ccccc2)C2C(=O)N(c3ccccc3)C(=O)C12)c1ccccc1` (centres undefined), the IC50 was 6.24 µM and the fold change came to 3.88.

As for `CCCn1c(O)c(N=Nc2ccc3ccccc3n2)c2ccccc21`, the IC50 is > 54 µM (inactive) and the fold change amounted to 1.5.

On to `O=C(c1ccccc1)c1ccc(O)cc1O`, for which the IC50 is less than 0.42 µM and the fold change was 48.2.

In the case of `CN(C)c1cccc(C(=O)OCc2cc(=O)oc3cc(O)ccc23)c1`, the IC50 was > 54 µM (inactive) and the fold change was 1.01.

On to `CC1CCc2c(sc3nc(CN4CCOCC4)nc(NS(=O)(=O)c4cccc([N+](=O)[O-])c4)c23)C1` (centres undefined), for which the IC50 was > 54 µM (inactive) and the fold change is 1.13.

For the molecule `Cc1cc2nc3c(=O)n(Cc4ccccc4)c(=O)[nH]c3nc2cc1N`, the IC50 was less than 0.42 µM and the fold change is 87.1.

As for `CCOC(=O)N1CCC(Nc2nc3ccccc3nc2NS(=O)(=O)c2ccc(Cl)cc2)CC1`, the IC50 was > 54 µM (inactive) and the fold change is 1.39.

As to `Cc1nnc(N2C(=O)C(O)=C(C(=O)c3ccco3)C2c2ccc(C(C)C)cc2)s1` (centres undefined), the IC50 is 2.2 µM and the fold change came out at 3.11.

Consider `Cc1nn(C)cc1N1C(=O)c2cccc3c(N)ccc(c23)C1=O`, for which the IC50 was less than 0.42 µM and the fold change is 109.

For `O=C1Nc2ccccc2/C1=C/c1cnc(-c2ccccc2)[nH]1`, the IC50 was 4.23 µM and the fold change turned out to be 14.6.

In the case of `Nc1cc(C(=O)O)c(N)c2c1C(=O)c1ccccc1C2=O`, the IC50 was less than 0.42 µM and the fold change was 4.83.

As to `CN1C[C@H](CO)C=C2c3cccc4[nH]cc(c34)C[C@H]21`, the IC50 was 12.4 µM and the fold change is 1.62.

In the case of `CCN(CC)c1ccc(/C=C(/C#N)c2nc3ccccc3[nH]2)c(OC(C)C)c1`, the concentration for half-maximal inhibition (IC50) is 10.7 µM and the fold change was 14.3.

Consider `CC1=CC(=C(C#N)c2nc3ccccc3s2)C=C(C)N1c1ccc(F)cc1`, for which the IC50 is 7.09 µM and the fold change was found to be 38.9.

As to `CC(=O)[C@@H]1[C@@H]2C(=O)N(C3CCCCC3)C(=O)[C@@H]2C2c3ccccc3C=CN21` (some centres undefined), the IC50 is 51.9 µM (inactive) and the fold change was 2.

For the molecule `CCOC(=O)C(=O)/C(=C\N(C)C)c1onc(-c2ccccc2)c1C(=O)OC`, the IC50 is > 54 µM (inactive) and the fold change came to 1.05.

For the molecule `O=C1C(=Cc2ccc(Br)o2)C(=O)c2ccccc21`, the IC50 was > 54 µM (inactive) and the fold change turned out to be 1.09.

For `CC(=O)c1ccc(Nc2c3c(nc4ccccc24)CCCC3)cc1`, the IC50 is > 54 µM (inactive) and the fold change was 0.95.

Regarding `CN1C(=O)/C(=C2\SC(=S)N(CCCCCC(=O)O)C2=O)c2ccccc21`, the IC50 was 52.1 µM (inactive) and the fold change amounted to 1.07.

`O=Cc1ccc2noc(-c3ccc(F)cc3)c2c1`: the half-inhibitory concentration (IC50) is 1.47 µM and the fold change came to 5.46.

On to `Cc1nnc(NC(=O)COc2ccc3c(C)cc(=O)oc3c2)s1`, for which the IC50 was > 54 µM (inactive) and the fold change turned out to be 1.06.

Consider `Cc1ccc(/C=C2\Sc3ccccc3C2=O)s1`, for which the IC50 is > 54 µM (inactive) and the fold change was determined as 1.61.

Take `Cc1c(O)c2c3c(cccc3c1O)C(=O)N(c1ccccc1)C2=O`: the 50% inhibitory concentration (IC50) was 1.41 µM and the fold change worked out at 7.05.

`CCCCC1=CC2=C(c3ccco3)C(=O)C(C)(OC(=O)c3ccc(OC)cc3)C(=O)C2=CN1Cc1ccccc1` (centres undefined): the IC50 was > 54 µM (inactive) and the fold change was 1.7.

Regarding `CCCCN1C(=O)/C(=C/C=C2\N(C)c3ccccc3C2(C)C)SC1=S`, the IC50 was 2.01 µM and the fold change turned out to be 18.6.

In the case of `Cn1c(=O)c(N)c2c3c(c(Br)ccc31)C(=O)c1ccccc1-2`, the half-maximal inhibitory concentration (IC50) was less than 0.42 µM and the fold change amounted to 98.9.

On to `Cc1ccc(NC(=O)CN2C(=O)/C(=C3\SC(=S)N(C4CCS(=O)(=O)C4)C3=O)c3ccccc32)cc1` (centres undefined), for which the IC50 is 20.4 µM and the fold change turned out to be 0.67.

In the case of `CCn1c(COc2ccccc2C)nnc1SCC(=O)N1CCC(C)CC1`, the IC50 is > 54 µM (inactive) and the fold change is 0.897.

With `NC(=O)c1sc2nc3c(c(-c4ccccc4)c2c1N)CCC3`, the IC50 is > 54 µM (inactive) and the fold change was 0.963.

Consider `Cc1ccc(N=C2NC(=O)/C(=C/c3cn(C)c4ccccc34)S2)cc1C`, for which the IC50 was 4.47 µM and the fold change is 7.74.

Take `CN1CCN(c2ccc([N+](=O)[O-])c3no[n+]([O-])c23)CC1`: the 50% inhibitory concentration (IC50) was 1.32 µM and the fold change worked out at 11.6.

Regarding `COc1ccccc1N1C(C)=CC(=C(C#N)c2nc3ccccc3s2)C=C1C`, the IC50 was 9.03 µM and the fold change was found to be 27.7.

For the molecule `CN(C)c1ncnc2c1NC1=C(S2)C(=NCCCC(=O)O)CC(C)(C)C1`, the half-inhibitory concentration (IC50) is 5.71 µM and the fold change stood at 3.35.

For the molecule `CCN1CCN(CC(=O)N2N=C(c3cccs3)CC2c2ccc(OC)c(OC)c2)C(=O)C1=O` (centres undefined), the IC50 was > 54 µM (inactive) and the fold change came out at 1.25.

Turning to `O=c1[nH]c2cc3c(cc2cc1CN(Cc1nnnn1CC1CCCO1)C1CCCCC1)OCO3` (centres undefined), the IC50 was 51.6 µM (inactive) and the fold change is 1.73.

Regarding `O=C1/C(=C/c2ccco2)Oc2c1ccc(O)c2CN1CCCCC1`, the 50% inhibitory concentration (IC50) was 1.93 µM and the fold change turned out to be 22.1.

Turning to `Cn1nc(-c2ccc(Cl)cc2)nc2c(=O)n(C)c(=O)nc1-2`, the IC50 was 7.16 µM and the fold change was 3.19.

`CCN1CC=C2C(C1)C(c1ccc(Cl)s1)C(C#N)=C(N)C2(C#N)C#N` (centres undefined): the IC50 is 0.95 µM and the fold change came out at 9.28.

In the case of `CCOc1ccc(NC(=O)c2cc3c(C)nc4ccccc4c3o2)cc1`, the IC50 was > 54 µM (inactive) and the fold change amounted to 0.947.

As for `CSC1=N/C(=C\c2ccccc2F)C(=O)S1`, the IC50 was > 54 µM (inactive) and the fold change is 1.05.

In the case of `CC(=O)c1ccc2noc(-c3ccc(F)cc3)c2c1`, the IC50 was 3.34 µM and the fold change came to 4.39.

Regarding `Cn1c(=O)c(NC2CCCCC2)c2c3c(cccc31)C(=O)c1ccccc1-2`, the IC50 was 0.88 µM and the fold change is 34.7.

On to `COc1ccc(-n2c(C)cc(/C=C3/SC(=S)N(C)C3=O)c2C)cc1`, for which the 50% inhibitory concentration (IC50) is 23.5 µM and the fold change was 7.53.

Regarding `Cc1ccc(C2C(C(=O)c3cccs3)=C(O)C(=O)N2c2nnc(C)s2)cc1` (centres undefined), the IC50 was 0.9 µM and the fold change came to 3.94.

Take `CCN(CC)c1ccc2cc(NC(=O)CCC(=O)O)c(=O)oc2c1`: the IC50 was 1.17 µM and the fold change stood at 12.

On to `Nc1cc2nsnc2cc1Br`, for which the IC50 was 28.6 µM and the fold change stood at 1.84.

For the molecule `NC(=S)n1[nH]c(-c2ccc([N+](=O)[O-])cc2)c(N=Nc2cccc(Cl)c2)c1=O`, the IC50 was 3.74 µM and the fold change came to 1.19.

For the molecule `CC1CCCN(c2nc3ccccc3nc2C(C#N)S(=O)(=O)c2ccccc2)C1` (centres undefined), the IC50 is > 54 µM (inactive) and the fold change is 1.37.
